Laboratory results: ChEMBL document CHEMBL1687918, “Cell-permeable and plasma-stable peptidomimetic inhibitors of the postsynaptic density-95/N-methyl-D-aspartate receptor interaction” (J Med Chem, 2011)
The source made the active and inactive calls. The calls are words filed in the database; no cut-off is given here. Peptide text beside a SMILES is read from it.

Tests used:
[1] = biological target: T1, Disks large homolog 4 (Homo sapiens, UniProt P78352); assay: Inhibition of PSD-95 PDZ2 domain-GluN2B interaction expressed in COS7 cells transfected with pGFP2-PDZ2 and pRluc-N2B at 500 uM by BRET assay; format: cell-based; details: COS-7
Target sequence in this assay (P78352 whole entry, looked up, the tested form may be a part): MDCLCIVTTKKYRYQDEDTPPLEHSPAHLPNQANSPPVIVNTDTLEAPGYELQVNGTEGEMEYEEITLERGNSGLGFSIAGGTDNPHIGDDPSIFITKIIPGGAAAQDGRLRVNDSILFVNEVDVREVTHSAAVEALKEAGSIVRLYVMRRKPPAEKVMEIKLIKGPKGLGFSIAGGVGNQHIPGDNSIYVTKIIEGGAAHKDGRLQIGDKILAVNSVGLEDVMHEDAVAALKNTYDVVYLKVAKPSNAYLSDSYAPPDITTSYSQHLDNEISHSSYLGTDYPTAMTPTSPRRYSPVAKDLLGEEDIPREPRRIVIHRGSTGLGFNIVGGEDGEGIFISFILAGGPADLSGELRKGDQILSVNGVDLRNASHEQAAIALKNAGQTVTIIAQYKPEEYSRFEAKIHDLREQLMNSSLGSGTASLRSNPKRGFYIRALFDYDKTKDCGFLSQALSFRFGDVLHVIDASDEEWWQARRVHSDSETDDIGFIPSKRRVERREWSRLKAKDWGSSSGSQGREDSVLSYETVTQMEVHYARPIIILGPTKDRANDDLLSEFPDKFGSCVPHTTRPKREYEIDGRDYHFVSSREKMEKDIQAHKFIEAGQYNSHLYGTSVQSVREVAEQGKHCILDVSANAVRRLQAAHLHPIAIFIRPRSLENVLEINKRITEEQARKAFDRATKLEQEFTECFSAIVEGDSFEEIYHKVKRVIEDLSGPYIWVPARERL

[2] = biological target: T1, Disks large homolog 4; assay: Inhibition of PSD-95 PDZ2 domain-GluN2B interaction expressed in COS7 cells transfected with pGFP2-PDZ2 and pRluc-N2B at 50 to 1000 uM by BRET assay; format: cell-based; details: COS-7
Target sequence in this assay (P78352 whole entry, looked up, the tested form may be a part): as above

[3] = biological target: T1, Disks large homolog 4; assay: Inhibition of PSD-95 PDZ3 domain by competitive fluorescence polarization assay
Target sequence in this assay (P78352 whole entry, the tested form may be a part): as the sequence (P78352 whole entry, looked up, the tested form may be a part) above

[4] = biological target: T1, Disks large homolog 4; assay: Inhibition of PSD-95 PDZ2 domain by competitive fluorescence polarization assay
Target sequence in this assay (P78352 whole entry, the tested form may be a part): as the sequence (P78352 whole entry, looked up, the tested form may be a part) above

[5] = Stability in human plasma assessed as half life by ESI-LC/MS; format: ADME, cell-free
[6] = biological target: T1, Disks large homolog 4; assay: Inhibition of PSD-95 PDZ2 domain-GluN2B interaction expressed in COS7 cells transfected with pGFP2-PDZ2 and pRluc-N2B at 100 uM by BRET assay; format: cell-based; details: COS-7
Target sequence in this assay (P78352 whole entry, looked up, the tested form may be a part): as above

Row | Compound | inhibition [1] | Ki ([3]; read-out: Ki) | Ki [4] | further results
1 | C[C@H](NC(=O)[C@H](C)NC(=O)[C@H](C)NC(=O)[C@H](CCC(=O)O)NCCCc1ccc(Cl)c(Cl)c1)C(=O)O |  |  |  | inhibition [2]: inactive
2 | CC(C)[C@H](NC(=O)[C@H](CC(=O)O)NC(=O)[C@@H](NC(=O)[C@H](CCC(=O)O)NCCC1CCCCC1)[C@@H](C)O)C(=O)O | inactive |  |  | Ki [3]: Not Active
3 | CC(C)[C@H](NC(=O)[C@H](C)NC(=O)[C@@H](NC(=O)[C@H](CCC(=O)O)NCC1CCCCCC1)[C@@H](C)O)C(=O)O |  | 16 µM | 1.4 µM | 
4 | H-RRRRRRRRKLSSIESDV-OH |  |  |  | inhibition [6]: Active
5 | CC(C)[C@H](NC(=O)[C@H](CC(=O)O)NC(=O)[C@@H](NC(=O)[C@@H](N)CCC(=O)O)[C@@H](C)O)C(=O)O (H-ETDV-OH) | inactive |  |  | 
6 | CC(C)[C@H](NC(=O)[C@H](CC(=O)O)NC(=O)[C@@H](NC(=O)[C@H](C)N)[C@@H](C)O)C(=O)O (H-ATDV-OH) |  |  |  | Ki [3]: Not Active
7 | CC(C)[C@H](NC(=O)[C@H](C)NC(=O)[C@@H](NC(=O)[C@H](CCC(=O)O)NCCc1ccc2ccccc2c1)[C@@H](C)O)C(=O)O | Active |  |  | inhibition [2]: Dose-dependent effect; half-life [5]: 1.53 h
8 | CC(C)[C@H](NC(=O)[C@H](C)NC(=O)[C@@H](NC(=O)[C@H](CCC(=O)O)NCC12CC3CC(CC(C3)C1)C2)[C@@H](C)O)C(=O)O |  | 6.7 µM | 2.1 µM | 
9 | CC(C)[C@H](NC(=O)[C@H](C)NC(=O)[C@@H](NC(=O)[C@H](CCC(=O)O)NCCC1CCCCCC1)[C@@H](C)O)C(=O)O |  | 9.4 µM | 1.2 µM | 
10 | CC(C)[C@H](NC(=S)[C@H](C)NC(=O)[C@@H](NC(=O)[C@H](CCC(=O)O)NCCC1CCCCC1)[C@@H](C)O)C(=O)O | Active | 11 µM | 0.63 µM | inhibition [2]: Active; half-life [5]: > 117 h
11 | CC(C)[C@H](NC(=O)[C@H](C)NC(=O)[C@@H](NC(=O)[C@H](CCC(=O)O)NCCCCc1ccc2ccc3cccc4ccc1c2c34)[C@@H](C)O)C(=O)O |  | 76 µM | 33 µM | 
12 | CN[C@@H](CCC(=O)O)C(=O)N[C@H](C(=O)N[C@@H](C)C(=O)N[C@H](C(=O)O)C(C)C)[C@@H](C)O |  |  | 9.65 µM | half-life [5]: 1.88 h
13 | CC(C)[C@H](NC(=O)[C@H](CC(=O)O)NC(=O)[C@@H](NC(=O)[C@H](CCC(N)=O)NCCC1CCCCC1)[C@@H](C)O)C(=O)O |  |  |  | Ki [3]: Not Active
14 | CC(C)[C@H](NC(=O)[C@H](C)NC(=O)[C@@H](NC(=O)[C@H](CCC(=O)O)NCCc1ccc(F)c(F)c1F)[C@@H](C)O)C(=O)O |  | 8.8 µM | 1.8 µM | 
15 | CC(C)[C@H](NC(=O)[C@H](CC(=O)O)NC(=O)[C@@H](NC(=O)[C@H](CCC(=O)O)NCCc1ccc2ccccc2c1)[C@@H](C)O)C(=O)O | inactive | 210 µM | 1.8 µM | 
16 | CN[C@@H](CCC(=O)O)C(=S)N[C@H](C(=O)N[C@@H](C)C(=O)N[C@H](C(=O)O)C(C)C)[C@@H](C)O |  |  | 32 µM | half-life [5]: > 91.7 h
17 | CC(C)[C@H](NC(=O)[C@H](C)NC(=O)[C@@H](NC(=O)[C@H](CCC(=O)O)NCCC1CC2CCC1C2)[C@@H](C)O)C(=O)O (some centres undefined) |  | 14 µM | 1.5 µM | 
18 | CC(C)[C@H](NC(=O)[C@H](C)NC(=O)[C@@H](NC(=O)[C@H](CCC(=O)O)NCCCc1c2ccccc2cc2ccccc12)[C@@H](C)O)C(=O)O |  | 95 µM | 9 µM | 
19 | CC(C)[C@H](NC(=O)[C@H](C)NC(=O)[C@@H](NC(=O)[C@H](CCC(=O)O)NCCCc1ccc(F)c(F)c1F)[C@@H](C)O)C(=O)O |  | 44 µM | 4.2 µM | 
20 | CC(C)[C@H](NC(=O)[C@H](CC(=O)O)NC(=O)[C@@H](NC(=O)[C@H](C)NCCC1CCCCC1)[C@@H](C)O)C(=O)O |  | > 400 µM |  | 
21 | CC(C)[C@H](NC(=O)[C@H](CC(=O)O)NC(=O)[C@@H](NC(=O)[C@@H](N)CCC(N)=O)[C@@H](C)O)C(=O)O |  |  |  | Ki [3]: Not Active
22 | CC(C)[C@H](NC(=O)[C@H](C)NC(=O)[C@@H](NC(=O)[C@H](CCC(=O)O)NCCc1ccc(Cl)c(Cl)c1)[C@@H](C)O)C(=O)O | Active |  |  | inhibition [2]: Dose-dependent effect; half-life [5]: 1.38 h

More lines, main results first:

Row | inhibition [1] | Ki ([3]; read-out: Ki) | Ki [4] | Compound | further results
23 | inactive |  |  | CC(C)[C@H](NC(=O)[C@H](C)NC(=O)[C@@H](NC(=O)[C@@H](N)CCC(=O)O)[C@@H](C)O)C(=O)O | 
24 |  | 51 µM | 16 µM | CC(C)[C@H](NC(=O)[C@H](C)NC(=O)[C@@H](NC(=O)[C@H](CCC(=O)O)NCCc1ccc2ccc3cccc4ccc1c2c34)[C@@H](C)O)C(=O)O | 
25 |  |  | 10.8 µM | CN[C@@H](CCC(=O)O)C(=O)N[C@H](C(=O)N[C@@H](C)C(=S)N[C@H](C(=O)O)C(C)C)[C@@H](C)O | half-life [5]: > 91.7 h
26 | Active |  | 0.63 µM | CC(C)[C@H](NC(=O)[C@H](C)NC(=O)[C@@H](NC(=O)[C@H](CCC(=O)O)NCCC1CCCCC1)[C@@H](C)O)C(=O)O | inhibition [2]: Dose-dependent effect; half-life [5]: 0.483 h
27 | Active | 8.3 µM | 1 µM | CC(C)[C@H](NC(=S)[C@H](C)NC(=O)[C@@H](NC(=O)[C@H](CCC(=O)O)NCCc1ccc(Cl)c(Cl)c1)[C@@H](C)O)C(=O)O | inhibition [2]: Dose-dependent effect; half-life [5]: > 117 h
28 | Active | 11 µM | 1.1 µM | CC(C)[C@H](NC(=S)[C@H](C)NC(=O)[C@@H](NC(=O)[C@H](CCC(=O)O)NCCc1ccc2ccccc2c1)[C@@H](C)O)C(=O)O | inhibition [2]: Dose-dependent effect; half-life [5]: > 117 h
29 | inactive | > 400 µM |  | CC(C)[C@H](NC(=O)[C@H](C)NC(=O)[C@@H](NC(=O)[C@H](C)N)[C@@H](C)O)C(=O)O (H-ATAV-OH) | 
30 |  | > 400 µM | 110 µM | CC(C)[C@H](NC(=O)[C@H](C)NC(=O)[C@@H](NC(=O)[C@@H](N)CCC(N)=O)[C@@H](C)O)C(=O)O (H-QTAV-OH) | 
31 | inactive | 130 µM | 1.2 µM | CC(C)[C@H](NC(=O)[C@H](CC(=O)O)NC(=O)[C@@H](NC(=O)[C@H](CCC(=O)O)NCCc1ccc(Cl)c(Cl)c1)[C@@H](C)O)C(=O)O | 
32 |  | 64 µM | 13 µM | CC(C)[C@H](NC(=O)[C@H](C)NC(=O)[C@@H](NC(=O)[C@H](C)NCCc1ccc(Cl)c(Cl)c1)[C@@H](C)O)C(=O)O | 
33 |  |  | 220 µM | CN[C@@H](CCC(=O)O)C(=O)N[C@H](C(=S)N[C@@H](C)C(=O)N[C@H](C(=O)O)C(C)C)[C@@H](C)O | half-life [5]: 9 h
34 |  | 20 µM | 1.3 µM | CC(C)[C@H](NC(=O)[C@H](C)NC(=O)[C@@H](NC(=O)[C@H](CCC(=O)O)NCC1CC2CCC1C2)[C@@H](C)O)C(=O)O (some centres undefined) | 
35 |  | 53 µM | 5 µM | CC(C)[C@H](NC(=O)[C@H](C)NC(=O)[C@@H](NC(=O)[C@H](CCC(=O)O)NCCCc1ccc2ccccc2c1)[C@@H](C)O)C(=O)O | 
36 |  | 280 µM | 56 µM | CC(C)[C@H](NC(=O)[C@H](C)NC(=O)[C@@H](NC(=O)[C@H](C)NCCc1ccc2ccccc2c1)[C@@H](C)O)C(=O)O | 
